pIC50: −log10 of the molar value.

The assay concerns the target T1, hROMK (hKir1.1) (Homo sapiens, UniProt P48048).
T1 construct: expressed in transfected cells
T1 sequence (P48048 1-391): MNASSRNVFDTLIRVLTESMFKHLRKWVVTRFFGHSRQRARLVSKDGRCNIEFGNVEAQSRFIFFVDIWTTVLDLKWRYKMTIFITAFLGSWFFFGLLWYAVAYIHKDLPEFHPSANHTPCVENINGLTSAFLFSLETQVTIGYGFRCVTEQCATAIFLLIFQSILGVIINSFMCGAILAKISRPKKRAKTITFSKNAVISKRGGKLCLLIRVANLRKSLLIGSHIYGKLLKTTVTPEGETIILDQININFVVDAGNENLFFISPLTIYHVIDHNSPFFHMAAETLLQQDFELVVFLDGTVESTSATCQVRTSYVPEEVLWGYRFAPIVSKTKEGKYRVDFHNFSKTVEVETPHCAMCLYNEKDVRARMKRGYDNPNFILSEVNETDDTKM
The assay is described as follows: Thallium Flux Assay (ROMK channel functional thallium flux, FLIPR-Tetra). The settings on record: HEK293 cells stably expressing hROMK (hKir1.1); 30 min compound incubation. The class given is cell-based. The method, then: The following Thallium Flux Assay was performed on each of the final product compounds in the Examples.
Cell Culture Conditions—HEK293 cells stably expressing hROMK (hKir1.1) were grown at 37° C. in a 10% CO2 humidified incubator in complete growth media: Dulbecco's Modified Eagle Medium supplemented with non-essential amino acids, Penicillin/Streptomycin/Glutamine, G418 and FBS. At >80% confluency, aspirate the media from the flask and rinse with 10 mL Calcium/Magnesium-free PBS. Add 5 mL of 1× trypsin (prepared in Ca/Mg Free PBS) to T-225 flask and return flask to 37° C./CO2 incubator for 2-3 minutes. To dislodge the cell, gently bang the side of the flask with your hand. Triturate the cells completely and then transfer the cells to 25 mL complete media. Centrifuge at 1,500 rpm for 6 min followed by resuspension in complete growth media and determine cell concentration. For typical re-seeding, 4E6 cells/T-225 flask will attain >80% confluency in 4 days. Under ideal growth conditions and appropriate tissue culture practices, this cell line is stable for 40-45 passages. FluxOR Kit Components (Invitrogen F10017) • FluxOR™ Reagent (Component A) • FluxOR™ Assay Buffer (Component B)—10× Concentrate • PowerLoad™ Concentrate (Component C)—100× Concentrate • Probenecid (Component D)—Lyophilized sample is kept at −20° C. Water soluble, 100× after solubilization in 1 mL water. Store at 4° C. • FluxOR™ Chloride-free Buffer (Component E)—5× Concentrate • Potassium sulfate (K2SO4) Concentrate (Component F)—125 mM in water. Store at 4° C. • Thallium sulfate (Tl2SO4) Concentrate (Component G)—50 mM in water. Store at 4° C. • DMSO (dimethyl sulfoxide, Component H)—1 mL (100%) Reagent Preparation: FluxOR Working Solutions • 1000× FluxOR™ Reagent: Reconstitute a vial of component A in 100 μl DMSO; Mix well; Store 10 μl aliquots at −20° C. • 1× FluxOR™ Assay Buffer: Dilute Component B 10-fold with water; Adjust pH to 7.4 with Hepes/NaOH; Filter and store at 4° C. • Probenecid/Assay Buffer: 100 mL of 1× FluxOR™ Assay Buffer; 1 mL of reconstituted component D; Store at 4° C. • Loading Buffer (per microplate): 10 μl 1000× FluxOR™ Reagent; 100 μl component C; 10 mL Probenecid/Assay Buffer • Compound Buffer (per microplate): 20 mL Probenecid/Assay Buffer; 0.3 mM ouabain (10 mM ouabain in water can be stored in amber bottle/aluminum foil at room temperature); Test compound • 1× FluxOR™ Chloride-Free Buffer: Prepare 1× working solution in water. Can be stored at room temperature • Stimulant Buffer (prepared at 5× final concentration in 1× FluxOR™ Chloride-Free Buffer): 7.5 mM Thallium sulfate and 0.75 mM Potassium sulfate (to give a final assay concentration of 3 mM Thallium/0.3 mM Potassium). Store at 4° C. when not in use. If kept sterile, this solution is good for months. Assay Protocol—The ROMK channel functional thallium flux assay is performed in 384 wells, using the FLIPR-Tetra instrument. HEK-hKir1.1 cells are seeded in Poly-D-Lysine microplates and kept in a 37° C.-10% CO2 incubator overnight. On the day of the experiment, the growth media is replaced with the FluxOR™ reagent loading buffer and incubated, protected from light, at ambient temperature (23-25° C.) for 90 min. The loading buffer is replaced with assay buffer±test compound followed by 30 min incubation at ambient temperature, where the Thallium/Potassium stimulant is added to the microplate. Step Protocol • 1. Seed HEK-hKir1.1 cells (50 μl at 20,000 cells/well) in 384-well PDL coated Microplates • 2. Allow cells to adhere overnight in humidified 37° C./10% CO2 incubator • 3. Completely remove cell growth media from microplate and replace with 25 μl loading buffer • 4. Incubate Microplate at room temperature, protected form light, for 90 min • 5. Remove loading buffer and replace with 25 μl 1× Assay Buffer±test compound. • 6. Incubate microplate at room temperature, protected from light, for 30 min • 7. At FLIPR-Tetra 384: Add stimulant (Thallium/Potassium) solution to microplate and monitor fluorescence. […]
A word on the pIC50: it is −log10 of the IC50, conventionally taken in molar units. Compound `CC1=C(N2CCC3(CCN(CCc4nnc(-n5cnnn5)cc4C)CC3F)C2=O)COC1=O` (single isomer, unassigned) [Example 267, 6-fluoro-2-(4-methyl-5-oxo-2,5-dihydrofuran-3-yl)-8-{2-[4-methyl-6-(1H-tetrazol-1-yl)pyridazin-3-yl]ethyl}-2,8-diazaspiro[4.5]decan-1-one] gave a pIC50 of 8.00.

Turning to `CC1=C(N2C(=O)C3(CCN(C[C@@H](O)c4ccc(-n5cnnn5)nn4)CC3)CC2C)COC1=O` (single isomer, unassigned) [Example 126], the pIC50 was 7.05.

On to `CC1=C(N2CCC3(CCN(CCc4cnc(-n5cnnn5)cn4)CC3)C2=O)COC1=O` [Example 234, 2-(4-methyl-5-oxo-2,5-dihydrofuran-3-yl)-1-oxo-8-{2-[5-(1H-tetrazol-1-yl)pyrazin-2-yl]ethyl}-2-aza-8-azoniaspiro[4.5]decane], for which the pIC50 is 8.00. Against the preceding compound, the pIC50 is 0.95 log units higher.

Consider `CC1=C(N2CCC3(CCN(C[C@H](O)c4ccc(-n5cnnn5)nn4)CC3)C2=O)COC1=O` [Example 32, 8-{(2S)-2-hydroxy-2-[6-(1H-tetrazol-1-yl)pyridazin-3-yl]ethyl}-2-(4-methyl-5-oxo-2,5-dihydrofuran-3-yl)-1-oxo-2-aza-8-azoniaspiro[4.5]decane], for which the pIC50 is 7.70. Compared with the last compound, the pIC50 is 0.30 log units lower.

Take `CC1=C(N2CCC3(CCN([C@@H](C)Cc4ccc(-n5cnnn5)nn4)CC3)C2=O)COC1=O` (single isomer, unassigned) [Example 293]: the pIC50 is 8.00.

For the compound `CCC1CC2(CCN(C[C@H](O)c3cnc(-n4cnnn4)cn3)CC2)C(=O)N1C1=CC(=O)OC1` (mixture of isomers) [Example 221, 3-ethyl-8-{(2S)-2-hydroxy-2-[5-(1H-tetrazol-1-yl)pyrazin-2-yl]ethyl}-2-(5-oxo-2,5-dihydrofuran-3-yl)-2,8-diazaspiro[4.5]decan-1-one], the pIC50 was 7.52.

Regarding `CC1CC2(CCN(C(C)(C)C(O)c3cnc(-n4cnnn4)cn3)CC2)C(=O)N1C1=CC(=O)OC1` (single isomer, unassigned) [Example 302, 8-(1-(5-(1H-tetrazol-1-yl)pyrazin-2-yl)-1-hydroxy-2-methylpropan-2-yl)-3-methyl-2-(5-oxo-2,5-dihydrofuran-3-yl)-2,8-diazaspiro[4.5]decan-1-one], the pIC50 was 7.00.

`CC1=C(N2CCC3(CCN(C[C@H](O)c4ccc(-n5cnnn5)cc4)CC3)C2=O)COC1=O` [Example 34, 8-{(2R)-2-hydroxy-2-[4-(1H-tetrazol-1-yl)phenyl]ethyl}-2-(4-methyl-5-oxo-2,5-dihydrofuran-3-yl)-1-oxo-2-aza-8-azoniaspiro[4.5]decane] showed a pIC50 of 8.00.

As to `CC1=CC2(CCN(CCc3ccc(-n4cnnn4)nn3)CC2)C(=O)N1C1=CC(=O)OC1` [Example 255, 3-methyl-2-(5-oxo-2,5-dihydrofuran-3-yl)-8-{2-[6-(1H-tetrazol-1-yl)pyridazin-3-yl]ethyl}-2,8-diazaspiro[4.5]dec-3-en-1-one], the pIC50 was 7.70.

For `CC1CC2(CC3CCC(C2)N3C[C@@H](O)c2cnc(-n3cnnn3)cn2)C(=O)N1C1=CC(=O)OC1` (single isomer, unassigned) [Example 90], the pIC50 is 7.40.

The compound `CC1OC(=O)C=C1N1CCC2(CCN(C[C@H](O)c3ccc(-n4cnnn4)nc3)CC2)C1=O` (mixture of isomers) [Example 227, 8-((R)-2-(6-(1H-tetrazol-1-yl)pyridin-3-yl)-2-hydroxyethyl)-2-(2-methyl-5-oxo-2,5-dihydrofuran-3-yl)-2,8-diazaspiro[4.5]decan-1-one] gave a negative-log IC50 (pIC50) of 6.74.

Regarding `CC1OC(=O)C=C1N1C(=O)C2(CCN(C[C@H](O)c3ccc(-n4cnnn4)nc3)CC2)C[C@@H]1C` (single isomer, unassigned) [Example 229], the pIC50 was 6.55.

On to `CC1=C(N2C(=O)C3(CCN(C[C@H](O)c4ccc(-n5cnnn5)nc4C)CC3)CC2C)COC1=O` (mixture of isomers) [Example 57, 8-{(2R)-2-hydroxy-2-[2-methyl-6-(1H-tetrazol-1-yl)pyridin-3-yl]ethyl}-3-methyl-2-(4-methyl-5-oxo-2,5-dihydrofuran-3-yl)-1-oxo-2-aza-8-azoniaspiro[4.5]decane], for which the pIC50 was 7.70.

`CC1=C(N2C=CC3(CCN(C[C@H](O)c4nnc(-n5cnnn5)cc4C)CC3)C2=O)COC1=O` [Example 154, 8-{(2S)-2-hydroxy-2-[4-methyl-6-(1H-tetrazol-1-yl)pyridazin-3-yl]ethyl}-2-(4-methyl-5-oxo-2,5-dihydrofuran-3-yl)-1-oxo-2-aza-8-azoniaspiro[4.5]dec-3-ene] showed a negative logarithm of the IC50 (pIC50) of 7.52.

Compound `CC1CC2(CCN(C(C)(C)C(O)c3cnc(-n4cnnn4)cn3)CC2)C(=O)N1C1=CC(=O)OC1` (single isomer, unassigned) [Example 304, 8-(1-(5-(1H-tetrazol-1-yl)pyrazin-2-yl)-1-hydroxy-2-methylpropan-2-yl)-3-methyl-2-(5-oxo-2,5-dihydrofuran-3-yl)-2,8-diazaspiro[4.5]decan-1-one] showed a pIC50 of 6.04. Compared with the last compound, the pIC50 is 1.48 log units lower.

For `O=C1C=C(N2C=CC3(CCN(C[C@@H](O)c4ccc(-n5cnnn5)nc4)CC3)C2=O)CO1` [Example 155, 8-{(2S)-2-hydroxy-2-[6-(1H-tetrazol-1-yl)pyridin-3-yl]ethyl}-1-oxo-2-(5-oxo-2,5-dihydrofuran-3-yl)-2-aza-8-azoniaspiro[4.5]dec-3-ene], the pIC50 is 7.22.

In turn, `CC1=C(N2C(=O)C3(CCN(C[C@@H](O)c4ccc(-n5cnnn5)nc4)CC3)CC2C)COC1=O` (single isomer, unassigned) [Example 63] gave a pIC50 of 7.40. This pIC50 and that of the compound before are within 0.2 log units of each other.

In turn, `CC1=C(N2CCC3(CCN(C[C@@H](O)c4cc(C)c(-n5cnnn5)nn4)CC3)C2=O)COC1=O` [Example 127, 8-{(2R)-2-hydroxy-2-[5-methyl-6-(1H-tetrazol-1-yl)pyridazin-3-yl]ethyl}-2-(4-methyl-5-oxo-2,5-dihydrofuran-3-yl)-1-oxo-2-aza-8-azoniaspiro[4.5]decane] had a pIC50 of 7.70.

In the case of `CO[C@H](CN1CCC2(CC1)C[C@@H](C)N(C1=CC(=O)OC1)C2=O)c1cnc(-n2cnnn2)cn1` (single isomer, unassigned) [Example 286], the pIC50 is 7.22.

On to `CC1=C(N2CCC3(CCN(C[C@@H](O)c4cnc(-n5cnnn5)c(F)c4)CC3)C2=O)COC1=O` [Example 27, 8-{(2S)-2-[5-fluoro-6-(1H-tetrazol-1-yl)pyridin-3-yl]-2-hydroxyethyl}-2-(4-methyl-5-oxo-2,5-dihydrofuran-3-yl)-1-oxo-2-aza-8-azoniaspiro[4.5]decane], for which the pIC50 was 7.70.

Consider `CC1OC(=O)C=C1N1C(=O)C2(CCN(C[C@H](O)c3ccc(-n4cnnn4)nc3)CC2)C[C@@H]1C` (single isomer, unassigned) [Example 228], for which the pIC50 is 7.70.

These data come from patent US9765074B2, “Inhibitors of the renal outer medullary potassium channel” (Merck Sharp & Dohme Corp., priority 2013, dated 2017).
